Assay results as given in ChEMBL document CHEMBL1201862, “PubChem BioAssay data set” (2004).
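These data come from cells grown in 96-well plates and exposed to compound for 48 hours at five concentrations. GI50 marks 50% less growth.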 Active and inactive are the calls of the source. Cut-off read from the data, not from the text of the source: active = GI50 up to about 1.1 µM and inactive = higher.

Columns and labels:
Experiment in all cases: NCI tumour cell line growth inhibition, 48 h
[1] = tested on: A498
[2] = tested on: CCRF-CEM
[3] = tested on: SF-539
[4] = tested on: CAKI-1
[5] = tested on: SK-MEL-2
[6] = tested on: 786-0
[7] = tested on: SF-295
[8] = tested on: ACHN
[9] = tested on: TK-10
[10] = tested on: SN12C
[11] = tested on: DLD-1
[12] = tested on: COLO 205
[13] = tested on: IGROV-1
[14] = tested on: Malme-3M
[15] = tested on: M14
[16] = tested on: HOP-92
[17] = tested on: SK-MEL-5
[18] = tested on: UACC-62
[19] = tested on: HCC 2998
[20] = tested on: HCT-116
[21] = tested on: UO-31
[22] = tested on: DMS-273
[23] = tested on: SW-620
[24] = tested on: RXF 631
[25] = tested on: NCI-H460
[26] = tested on: OVCAR-4
[27] = tested on: K562
[28] = tested on: LOX IMVI
[29] = tested on: SK-MEL-28
[30] = tested on: KM12
[31] = tested on: U-251
[32] = tested on: OVCAR-8
[33] = tested on: RXF 393
[34] = tested on: SK-OV-3
[35] = tested on: A549
[36] = tested on: SF-268
[37] = tested on: KM-20L2
[38] = tested on: HOP-18
[39] = tested on: SNB-78
[40] = tested on: NCI-H226
[41] = tested on: OVCAR-5
[42] = tested on: HOP-62
[43] = tested on: NCI-H23
[44] = tested on: HCT-15
[45] = tested on: HT-29
[46] = tested on: SNB-19
[47] = tested on: M19-MEL
[48] = tested on: LXFL 529
[49] = tested on: XF498
[50] = tested on: DMS-114
[51] = tested on: EKVX
[52] = tested on: MOLT-4
[53] = tested on: OVCAR-3
[54] = tested on: HL-60
[55] = tested on: NCI-H522
[56] = tested on: SNB-75
[57] = tested on: UACC-257

COc1cc2c(cc1OCc1ccccc1)CNCC2
GI50 [1]: > 100 µM (inactive)
GI50 [2]: > 100 µM (inactive)
GI50 [3]: > 100 µM (inactive)
GI50 [4]: > 100 µM (inactive)
GI50 [5]: > 100 µM (inactive)
GI50 [6]: > 100 µM (inactive)
GI50 [7]: > 100 µM (inactive)
GI50 [8]: > 100 µM (inactive)
GI50 [9]: > 100 µM (inactive)
GI50 [10]: > 100 µM (inactive)
GI50 [11]: > 100 µM (inactive)
GI50 [12]: > 100 µM (inactive)
GI50 [13]: > 100 µM (inactive)
GI50 [14]: > 100 µM (inactive)
GI50 [15]: > 100 µM (inactive)
GI50 [16]: 23.6 µM (inactive)
GI50 [17]: > 100 µM (inactive)
GI50 [18]: > 100 µM (inactive)
GI50 [19]: > 100 µM (inactive)
GI50 [20]: > 100 µM (inactive)
GI50 [21]: > 100 µM (inactive)
GI50 [22]: > 100 µM (inactive)
GI50 [23]: 24.3 µM (inactive)
GI50 [24]: > 100 µM (inactive)
GI50 [25]: > 100 µM (inactive)
GI50 [26]: > 100 µM (inactive)
GI50 [27]: > 100 µM (inactive)
GI50 [28]: 91.6 µM (inactive)
GI50 [29]: > 100 µM (inactive)
GI50 [30]: > 100 µM (inactive)
GI50 [31]: > 100 µM (inactive)
GI50 [32]: > 100 µM (inactive)
GI50 [33]: > 100 µM (inactive)
GI50 [34]: > 100 µM (inactive)
GI50 [35]: > 100 µM (inactive)
GI50 [36]: > 100 µM (inactive)
GI50 [37]: > 100 µM (inactive)
GI50 [38]: > 100 µM (inactive)
GI50 [39]: > 100 µM (inactive)
GI50 [40]: > 100 µM (inactive)
GI50 [41]: > 100 µM (inactive)
GI50 [42]: > 100 µM (inactive)
GI50 [43]: > 100 µM (inactive)
GI50 [44]: > 100 µM
GI50 [45]: > 100 µM (inactive)
GI50 [46]: > 100 µM (inactive)
GI50 [47]: > 100 µM (inactive)
GI50 [48]: > 100 µM (inactive)
GI50 [49]: > 100 µM (inactive)
GI50 [50]: > 100 µM (inactive)
GI50 [51]: > 100 µM (inactive)
GI50 [52]: > 100 µM (inactive)
GI50 [53]: > 100 µM (inactive)
GI50 [54]: 70.3 µM (inactive)
GI50 [55]: > 100 µM (inactive)
GI50 [56]: > 100 µM (inactive)
GI50 [57]: > 100 µM (inactive)
